{"source": "patent US20100087457A1", "about": "“DOSAGES AND METHODS FOR THE TREATMENT OF CANCER” (Myriad Pharmaceuticals, Inc, priority 2007, published 2010)", "test": "Phase I clinical trial: plasma concentrations after weekly intravenous infusion (pharmacokinetics)", "assay_type": "in vivo, human", "details": "LLOQ 1 ng/mL; for Plasma Concentrations 2 HR: 2 hr after infusion; for Plasma Concentrations 4 HR: 4 hr after infusion; for Plasma Concentrations 6 HR: 6 hr after infusion; for Plasma Concentrations 12 HR: 12 hr after infusion; for Plasma Concentrations 24 HR: 24 hr after infusion; for Plasma Concentrations EOI: end of infusion; for Plasma Concentrations PREDOSE: Day 15 (third weekly dose)", "protocol": "An open-label, dose-escalating, multiple-dose study to define the safety, tolerability and pharmacokinetics of weekly intravenous administration of (4-Methoxy-phenyl)-methyl-(2-methyl-quinazolin-4-yl)-amine hydrochloride was performed. A dosing schedule (each 4 week cycle) was performed for (4-Methoxy-phenyl)-methyl-(2-methyl-quinazolin-4-yl)-amine hydrochloride weekly for 3 weeks with no infusion on the fourth week of each cycle. Subjects with refractory solid tumors were enrolled in cohorts of 3. During Cycle 1, subjects were hospitalized during each infusion of (4-Methoxy-phenyl)-methyl-(2-methyl-quinazolin-4-yl)-amine hydrochloride and remained for observation and safety evaluation for approximately 24 hours following the end of the infusion. All subjects had continuous telemetry for 2 hours prior to infusion, for 1-2 hour infusion and for 3 hours after the end of the infusion. Any clinically significant electrocardiographic (ECG) wave form abnormality was recorded and prolongation of the monitoring period extended at the discretion of the principal investigator.\nBlood samples were collected prior to dosing, at the end of the infusion, and 1, 2, 4, 6, 12, and 24 hours after the infusion. This sampling schedule occurred on Days 1 and 15 with administration of the first and third doses. Samples were collected into tubes containing EDTA and stored on ice until centrifuged. The plasma was frozen at approximately −20° C. in labeled, plastic tubes, or vials, and tightly capped. The samples were shipped to Myriad Pharmaceuticals, Inc. for analysis of (4-Methoxy-phenyl)-methyl-(2-methyl-quinazolin-4-yl)-amine hydrochloride. Pharmacokinetic analysis was conducted using WinNonlin 4.0®.", "key": {"[1]": {"details": "Day 1, 0.3 mg/m^2 i.v., infusion 1 hr"}, "[2]": {"details": "Day 1, 2.1 mg/m^2 i.v., infusion 1 hr, hydrochloride"}, "[3]": {"details": "Day 1, 2.7 mg/m^2 i.v., infusion 1 hr, hydrochloride"}, "[4]": {"details": "Day 1, 3.3 mg/m^2 i.v., infusion 2 hr, hydrochloride"}, "[5]": {"details": "Day 15, 0.3 mg/m^2 i.v., infusion 1 hr"}, "[6]": {"details": "Day 15, 1.0 mg/m^2 i.v., infusion 1 hr, hydrochloride"}, "[7]": {"details": "Day 15, 1.0 mg/m^2 i.v., infusion 1 hr"}, "[8]": {"details": "Day 15, 3.9 mg/m^2 i.v., infusion 2 hr, hydrochloride"}}, "note": "“And” between values parts separate entries of the source, which are not always exact repeats. Equal values may be shown once. Where a name gives a salt, the structure may show the parent alone.", "data": [{"smiles": "COc1ccc(N(C)c2nc(C)nc3ccccc23)cc1", "note": "[(4-Methoxy-phenyl)-methyl-(2-methyl-quinazolin-4-yl)-amine hydrochloride]", "values": [{"measurement": "Plasma Concentrations 1 HR", "setting": "Day 1, 0.3 mg/m^2 i.v., infusion 1 hr, 1 hr after infusion, hydrochloride", "value": "1.17 ng/mL and 1.25 ng/mL"}, {"measurement": "Plasma Concentrations 2 HR", "setting": "[1]", "value": "BQL"}, {"measurement": "Plasma Concentrations 4 HR", "setting": "[1]", "value": "BQL"}, {"measurement": "Plasma Concentrations 6 HR", "setting": "[1]", "value": "BQL"}, {"measurement": "Plasma Concentrations 12 HR", "setting": "[1]", "value": "BQL"}, {"measurement": "Plasma Concentrations 24 HR", "setting": "[1]", "value": "BQL"}, {"measurement": "Plasma Concentrations EOI", "setting": "Day 1, 0.3 mg/m^2 i.v., infusion 1 hr, hydrochloride", "value": "1.77 ng/mL and 1.52 ng/mL and 2.43 ng/mL"}, {"measurement": "Plasma Concentrations 24 HR", "setting": "Day 1, 1.5 mg/m^2 i.v., infusion 1 hr", "value": "BQL"}, {"measurement": "Plasma Concentrations 1 HR", "setting": "Day 1, 2.1 mg/m^2 i.v., infusion 1 hr, 1 hr after infusion, hydrochloride", "value": "5.53 ng/mL and 3.75 ng/mL"}, {"measurement": "Plasma Concentrations 2 HR", "setting": "[2]", "value": "4.78 ng/mL and 3.94 ng/mL"}, {"measurement": "Plasma Concentrations 4 HR", "setting": "[2]", "value": "2.69 ng/mL and 2.41 ng/mL"}, {"measurement": "Plasma Concentrations 6 HR", "setting": "[2]", "value": "1.62 ng/mL and 1.18 ng/mL"}, {"measurement": "Plasma Concentrations 24 HR", "setting": "Day 1, 2.1 mg/m^2 i.v., infusion 1 hr", "value": "BQL"}, {"measurement": "Plasma Concentrations 1 HR", "setting": "Day 1, 2.7 mg/m^2 i.v., infusion 1 hr, 1 hr after infusion, hydrochloride", "value": 4.69, "unit": "ng/mL"}, {"measurement": "Plasma Concentrations 2 HR", "setting": "[3]", "value": "4.03 ng/mL and 5.54 ng/mL"}, {"measurement": "Plasma Concentrations 4 HR", "setting": "[3]", "value": "2.33 ng/mL and 3.91 ng/mL"}, {"measurement": "Plasma Concentrations 6 HR", "setting": "[3]", "value": "1.68 ng/mL and 3.11 ng/mL"}, {"measurement": "Plasma Concentrations EOI", "setting": "[3]", "value": "10.42 ng/mL and 11.10 ng/mL and 7.52 ng/mL"}, {"measurement": "Plasma Concentrations 2 HR", "setting": "[4]", "value": "10.37 ng/mL and 8.81 ng/mL and 5.19 ng/mL"}, {"measurement": "Plasma Concentrations EOI", "setting": "[4]", "value": "8.67 ng/mL and 11.97 ng/mL and 13.37 ng/mL and 16.77 ng/mL"}, {"measurement": "Plasma Concentrations PREDOSE", "setting": "0.3 mg/m^2 i.v., infusion 1 hr", "value": "BQL"}, {"measurement": "Plasma Concentrations PREDOSE", "setting": "0.6 mg/m^2 i.v., infusion 1 hr", "value": "BQL"}, {"measurement": "Plasma Concentrations PREDOSE", "setting": "1.0 mg/m^2 i.v., infusion 1 hr", "value": "BQL"}, {"measurement": "Plasma Concentrations PREDOSE", "setting": "1.5 mg/m^2 i.v., infusion 1 hr", "value": "BQL"}, {"measurement": "Plasma Concentrations PREDOSE", "setting": "2.1 mg/m^2 i.v., infusion 1 hr", "value": "BQL"}, {"measurement": "Plasma Concentrations PREDOSE", "setting": "2.7 mg/m^2 i.v., infusion 1 hr", "value": "BQL"}, {"measurement": "Plasma Concentrations PREDOSE", "setting": "3.3 mg/m^2 i.v., infusion 2 hr", "value": "BQL"}, {"measurement": "Plasma Concentrations 2 HR", "setting": "[5]", "value": "BQL"}, {"measurement": "Plasma Concentrations 4 HR", "setting": "[5]", "value": "BQL"}, {"measurement": "Plasma Concentrations 6 HR", "setting": "[5]", "value": "BQL"}, {"measurement": "Plasma Concentrations 12 HR", "setting": "[5]", "value": "BQL"}, {"measurement": "Plasma Concentrations 24 HR", "setting": "[5]", "value": "BQL"}, {"measurement": "Plasma Concentrations 1 HR", "setting": "Day 15, 1.0 mg/m^2 i.v., infusion 1 hr, 1 hr after infusion, hydrochloride", "value": 2.51, "unit": "ng/mL"}, {"measurement": "Plasma Concentrations 2 HR", "setting": "[6]", "value": 2.15, "unit": "ng/mL"}, {"measurement": "Plasma Concentrations 6 HR", "setting": "[7]", "value": "BQL"}, {"measurement": "Plasma Concentrations 12 HR", "setting": "[7]", "value": "BQL"}, {"measurement": "Plasma Concentrations 24 HR", "setting": "[7]", "value": "BQL"}, {"measurement": "Plasma Concentrations EOI", "setting": "[6]", "value": "8.27 ng/mL and 7.82 ng/mL"}, {"measurement": "Plasma Concentrations 4 HR", "setting": "Day 15, 1.5 mg/m^2 i.v., infusion 1 hr, hydrochloride", "value": "1.60 ng/mL and 1.40 ng/mL and 1.30 ng/mL"}, {"measurement": "Plasma Concentrations 1 HR", "setting": "Day 15, 2.1 mg/m^2 i.v., infusion 1 hr, 1 hr after infusion, hydrochloride", "value": "6.21 ng/mL and 7.19 ng/mL"}, {"measurement": "Plasma Concentrations 4 HR", "setting": "Day 15, 2.1 mg/m^2 i.v., infusion 1 hr, hydrochloride", "value": 3.79, "unit": "ng/mL"}, {"measurement": "Plasma Concentrations 1 HR", "setting": "Day 15, 3.3 mg/m^2 i.v., infusion 1 hr, 1 hr after infusion, hydrochloride", "value": "9.00 ng/mL and 17.56 ng/mL and 15.17 ng/mL"}, {"measurement": "Plasma Concentrations 1 HR", "setting": "Day 15, 3.3 mg/m^2 i.v., infusion 2 hr, 1 hr after infusion, hydrochloride", "value": "12.21 ng/mL and 6.40 ng/mL and 7.21 ng/mL"}, {"measurement": "Plasma Concentrations 2 HR", "setting": "Day 15, 3.3 mg/m^2 i.v., infusion 2 hr, hydrochloride", "value": "7.50 ng/mL and 5.52 ng/mL and 4.16 ng/mL"}, {"measurement": "Plasma Concentrations 1 HR", "setting": "Day 15, 3.9 mg/m^2 i.v., infusion 2 hr, 1 hr after infusion, hydrochloride", "value": "10.97 ng/mL and 12.15 ng/mL and 7.79 ng/mL and 9.85 ng/mL"}, {"measurement": "Plasma Concentrations 2 HR", "setting": "[8]", "value": "8.48 ng/mL and 14.58 ng/mL and 7.36 ng/mL and 8.35 ng/mL"}, {"measurement": "Plasma Concentrations 4 HR", "setting": "[8]", "value": "9.13 ng/mL and 7.84 ng/mL and 10.17 ng/mL and 6.81 ng/mL"}, {"measurement": "Plasma Concentrations 1 HR", "setting": "Day 15, 4.5 mg/m^2 i.v., infusion 2 hr, 1 hr after infusion, hydrochloride", "value": "17.94 ng/mL and 11.45 ng/mL and 10.03 ng/mL"}, {"measurement": "Plasma Concentrations 2 HR", "setting": "Day 15, 4.5 mg/m^2 i.v., infusion 2 hr, hydrochloride", "value": "14.46 ng/mL and 12.32 ng/mL and 8.11 ng/mL"}, {"measurement": "concentration at 1 h after end of infusion", "setting": "human, plasma, iv, 0.3 mg/m^2, Day 1, 0.3 mg/m^2 i.v., infusion 1 hr, 1 hr after infusion", "value": 1.03, "unit": "ng/mL"}]}]}
